According to patent publication US8362263B2 (CJ Cheiljedang Corporation, priority 2006, dated 2013):
Structures can show the parent of a compound that is named as a salt.

Key:
[1] = Hygroscopicity test (K.F. water content under various humidity); type: physicochemical; details: 25° C.; for hygroscopicity (in words): various humidity conditions
[2] = Thermal stability in solid state, acceleration test at 60° C. (HPLC content); type: physicochemical
Protocol: (§1) <HPLC Analysis Condition> • Detector: UV absorbance (at 237 nm), • Column: Octadecyl silica gel C18 (4.6 mm×150 mm, 5[…]), • mobile phase: Potassium dihydrogen phosphate monobasic (0.03 M): Methanol=4:6 (by volume) • Flow rate: 1.5 ml/min.

[3] = Thermal stability in liquid state (distilled water, 25° C., dark, 4 weeks); type: physicochemical; details: dissolved in distilled water, 4 weeks at 25° C. in the dark
Protocol: as §1
The observation was made under the same conditions as in the HPLC analysis for evaluating the thermal stability of samples in a solid state.

[4] = Photostability test (ICH photostable chamber, 25° C., 4 weeks, HPLC content); type: physicochemical; details: 4 weeks at 25° C., light source
Protocol: as §1
An observation was made of content (HPLC) change under the same conditions as in the HPLC analysis for evaluating the thermal stability of samples.

physchem = details: 25 °C

Row | water content (K.F. moisture %) ([1]; 25% RH, Post 1 Week) [%] | water content (K.F. moisture %) ([1]; 60% RH, Post 1 Week) [%] | water content (K.F. moisture %) ([1]; 75% RH, Post 1 Week) [%] | water content (K.F. moisture %) ([1]; 95% RH, Post 1 Week) [%] | water content (K.F. moisture %) ([1]; Initial) [%] | hygroscopicity (in words) [1] | content change in 60° C. acceleration test (in words) [2] | content change in liquid state (in words) [3] | appearance on light exposure [4] | solubility (physchem; pH 1.2, simulated gastric fluid) [mg/mL] | solubility (physchem; pH 4, aqueous buffer) [mg/mL] | solubility (physchem; pH 6.8, aqueous buffer) [mg/mL] | solubility (physchem; water) [mg/mL] | water content (K.F. moisture %) ([1]; 95% RH, Post 1 Week, listed as Example 2) [%] | SMILES
1 | 0.10 | 0.09 | 0.15 | 0.17 | 0.10 | no hygroscopicity | little change in content | no significant content changes | – | – | – | – | – | – | CCOC(=O)C1=C(COCCN)NC(C)=C(C(=O)OC)C1c1ccccc1Cl.O=C(O)CCCCC(=O)O (racemic) [C. Ex. 2, crystalline racemic amlodipine adipic acid salt anhydrous, reference compound]
2 | 7.55 | 7.6 | 7.85 | 7.9 | 7.8 | high in water content from the beginning | little change in content | no significant content changes | turned yellow from white | – | – | – | – | – | CCOC(=O)C1=C(COCCN)NC(C)=C(C(=O)OC)[C@@H]1c1ccccc1Cl.CCOC(=O)C1=C(COCCN)NC(C)=C(C(=O)OC)[C@@H]1c1ccccc1Cl.O.O.O.O.O.O=S(=O)(O)c1ccccc1.O=S(=O)(O)c1ccccc1 [C. Ex. 1, S-(−)-amlodipine besylate 2.5 hydrate, reference compound]
3 | 0.15 | 0.15 | 0.14 | 0.16 | 0.15 | no hygroscopicity | little change in content | no significant content changes | – | 81.7 | 57.1 | 41.3 | 18.6 | – | CCOC(=O)C1=C(COCCN)NC(C)=C(C(=O)OC)[C@@H]1c1ccccc1Cl [Ex. 1, crystalline S-(−)-amlodipine adipic acid salt anhydrous]
4 | 0.8 | 0.9 | 1.3 | 1.62 | 0.7 | – | – | – | – | – | – | – | – | 1.62 | CCOC(=O)C1=C(COCCN)NC(C)=C(C(=O)OC)[C@@H]1c1ccccc1Cl [Ex. 2, hygroscopic crystalline S-(−)-amlodipine adipic acid salt anhydrous]
